Assay [1] deals with EAE-induced DA rats. Kind of assay: EAE-induced DA rat model, paralysis score and mortality (DA-EAE-28-01, Example 12). Type of assay: in vivo. The note with it: 54 EAE induced DA rats; daily s.c. injection, 6 total; peptide dose 50 μg (mixtures 150 μg); deaths/N. The method, then: Each of the seven formulations being evaluated was provided as a lyophilized powder and stored at 4° C. Rehydration of each daily group dose was done with water for injection according to Table 6. MBP peptide formulations were re-suspended in water for injection (Cure Medical) and copaxone (Teva LTD) was diluted with Saline to a final concentration of 150 μg/mL. Each subject animal was administered the test formulation for 6 consecutive days by subcutaneous injection.
(§1) 9 week old Dark Agouti (DA) female rats (Harlan Laboratories, Inc.), weighing between 125 and 145 grams were used as the test subjects. The health status of the animals used in this study was examined on arrival. Only animals in good health were acclimatized to laboratory conditions and were used in the study. Animals were provided Protein Rodent Diet (Teklad) ad libitum and free access to drinking water. Animals were housed in a controlled environment at between 20° C. and 24° C. with a relative humidity of 30-70% and a 12 hr light/12 hr dark cycle. Animals were randomly assigned to their respective test group. This study was performed following the review by the Committee for Ethical Conduct in the Care and Use of Laboratory Animals of the Assaf Harofeh medical center, Beer Yaakov, Ethical Committee number: 68/2009.
For induction of EAE, rats were intradermally injected at the base of the tail with a total volume of 200 μl of inoculum containing 50 μg of MBP(63-81) (ANASPEC), in saline mixed (1:1) with CFA, (IFA, Sigma) and 1 mg Mt (strain H37 RA; Difco Laboratories, Detroit, Mich.).
The rats were evaluated up daily starting 24 hours after immunization. […]
7-10 days post EAE induction, 54 animals were divided to 9 groups (6 rats in each), and blood was collected from 2 rats of each group before the initiation of the treatment. […] The animals were maintained and evaluated until day 28th post EAE-induction. […]
Animals were observed individually and clinical signs were recorded once daily during all study periods. […] The body weight of each animals was determined daily during all study periods. […]

For assay [2], the system named is EAE-induced DA rats. Kind of assay: EAE-induced DA rat model, paralysis score and mortality (DA-EAE-28-05, Example 14). Particulars: versus water control (Group 1); days 1-4 post-treatment; daily s.c., 6 total; n=6. Type of assay: in vivo. Here is the method:
Each of the four MBP peptide formulations being evaluated were provided as lyophilized powders and stored at 4° C. Each formulation was rehydrated in water for injection according to Table 13. Copaxone (Teva LTD) was diluted with Saline to a final concentration of 720 μg/mL. Each subject animal was administered the test formulation for 6 consecutive days by subcutaneous injection.
as §1, with “8-9” for “9”, “110” for “125”, “food” for “Protein Rodent Diet (Teklad)”, “This study was performed following the review by the Committee for Ethical Conduct in the Care and Use of Laboratory Animals of the Assaf Harofeh medical center, Beer Yaakov, Ethical Committee number: 68/2009.” left out
The rats were evaluated up daily starting 24 hours after immunization. […] The animals were maintained and evaluated until day 28th post EAE-induction. […]
Animals were observed individually and clinical signs were recorded once daily during all study periods. […] The body weight of each animals was determined daily during all study periods.

Turning to glatiramer acetate [copaxone], the “Mortality Rate” value with EAE-induced DA rats [1] is given as 2/6. The paralysis score result in the assay on EAE-induced DA rats [2] is given as “non-statistically significant difference (tendency)”.
